Numbers after ± are expanded uncertainties.
Conditions: Liquid; for mass density: 298.15 K, 101.33 kPa, Pycnometric method; for Normal boiling temperature: Ebulliometric method (Recirculating still)

| SMILES | mass density | Normal boiling temperature |
| --- | --- | --- |
| CCO [ethanol] | 785.2 ± 0.7 kg/m3 | 78.31 ± 0.05 °C |
| CC(C)O [propan-2-ol] | 780.8 ± 0.7 kg/m3 | 82.2 ± 0.05 °C |
| CCCO [propan-1-ol] | 799.6 ± 0.7 kg/m3 | 97.06 ± 0.05 °C |
| CCCCO [butan-1-ol] | 805.7 ± 0.7 kg/m3 | – |
| CCC(C)O (stereo not drawn) [butan-2-ol] | 802.3 ± 0.7 kg/m3 | 99.48 ± 0.05 °C |
| CC(C)CO [2-methyl-1-propanol] | 797.8 ± 0.7 kg/m3 | 107.77 ± 0.05 °C |
| CO [methanol] | 786.6 ± 0.7 kg/m3 | 64.49 ± 0.05 °C |

Reference: the NIST ThermoML archive (doi:10.1021/je7007582)
